The values that follow come from US20140155406A1, “4-IMIDAZOPYRIDAZIN-1-YL-BENZAMIDES AND 4-IMIDAZOTRIAZIN-1-YL-BENZAMIDES BTK INHIBITORS” (priority 2011, published 2014).

One assay has as its target T1, Src enzyme (Homo sapiens, UniProt P12931).
T1 construct: purchased Millipore 14-326
The assay can be described thus: Src enzyme activity, IMAP fluorescence polarization assay. It counts as biochemical. Particulars: 60 min pre-incubation, 4 μM ATP (Km). As for the experimental part: Src enzyme activity is measured using the IMAP (immobilized metal ion affinity-based fluorescence polarization) assay as outlined below.
Src enzyme (Millipore catalog#14-326), is diluted to 0.8 U/mL in KR buffer (10 mM Tris-HCl, 10 mM MgCl2, 0.01% Tween-20, 0.05% NaN3, 1 mM DTT, 2 mM MnCl2, pH 7.2).
Serial dilution log 10 from 2 mM to 63.2 nM of test compounds are made in 100% DMSO. The dilutions in DMSO are then diluted 50-fold in KR-buffer of which 5 μl is used in the assay, leading to a final compound concentration range in the assay from 10 μM to 0.316 nM. 5 μL/well of test compound in KR buffer (final DMSO concentration in the assay is 1%) is mixed with 5 μl/well of 0.8 U/mL Src enzyme (final concentration in the assay is 0.2 U/mL). Test compounds and Src enzyme are pre-incubated 60 minutes at room temperature, before adding 5 μL/well of 400 nM Fluorescin labeled substrate peptide (p34cdc2 substrate peptide, e.g. #R7157/#R7172, Molecular Devices) in KR-buffer. Final peptide substrate concentration in assay is 100 nM. The kinase assay is started by adding 5 μL/well of 16 μM ATP in KR-buffer (final ATP concentration is 4 μM ATP, Km ATP in Src IMAP assay). Following incubation for 2 h at room temperature the enzyme reaction is stopped by adding 40 μL/well IMAP Progressive Binding Solution (according to suppliers (Molecular Devices) protocol using 75% 1× buffer A and 25% 1× buffer B with 1:600 Progressive Binding Solution). After 60 min incubation at room temperature in the dark the FP signal is read. Fluorescence at 535 nm is measured using parallel and perpendicular filters to determine differences in rotation due to binding of the phosphorylated substrate peptide to the beads. Values are calculated as percentage of the difference in readout (ΔmPi) of the controls with and without ATP. EC50 values are determined by curve fitting of the experimental results using Activity Base.

Another assay has as its target T2, Btk enzyme (His-Btk) (Homo sapiens, UniProt Q06187).
T2 construct: His; purchased Millipore 14-552
The experiment in a line: Btk enzyme activity, IMAP fluorescence polarization assay. It counts as biochemical. Particulars: 60 min pre-incubation, 5 μM ATP (Km). An excerpt:
Inhibition of kinase activity can be measured using the Immobilized Metal Assay for Phosphochemicals (IMAP) assay. IMAP is a homogeneous fluorescence polarization (FP) assay based on affinity capture of phosphorylated peptide substrates. IMAP uses fluorescein-labeled peptide substrates that, upon phosphorylation by a protein kinase, bind to so-called IMAP nanoparticles, which are derivatized with trivalent metal complexes. Binding causes a change in the rate of the molecular motion of the peptide, and results in an increase in the FP value observed for the fluorescein label attached to the substrate peptide (Gaudet et al. A homogeneous fluorescence polarization assay adaptable for a range of protein serine/threonine and tyrosine kinases. J. Biomol. Screen (2003) 8, 164-175).
Btk enzyme activity is measured using the IMAP (immobilized metal ion affinity-based fluorescence polarization) assay as outlined below.
Btk enzyme (His-Btk (Millipore catalog#14-552), is diluted to 0.4 U/mL in KR buffer (10 mM Tris-HCl, 10 mM MgCl2, 0.01% Tween-20, 0.05% NaN3, 1 mM DTT, 2 mM MnCl2, pH 7.2).
Serial dilution log 10 from 2 mM to 63.2 nM of test compounds are made in 100% DMSO. The dilutions in DMSO are then diluted 50-fold in KR-buffer. Final compound concentration range in the assay from 10 μM to 0.316 nM.
5 μL/well of test compound in KR buffer (final DMSO concentration in the assay is 1%) is mixed with 5 μl/well of 0.4 U/mL Btk enzyme (final concentration in the assay is 0.1 U/mL). Test compounds and Btk enzyme are pre-incubated 60 minutes at room temperature, before adding 5 μL/well of 200 nM Fluorescin labeled substrate peptide (Blk/Lyntide substrate, e.g. #R7188/#R7233, Molecular Devices) in KR-buffer. Final peptide substrate concentration in assay is 50 nM. The kinase assay is started by adding 5 μL/well of 20 μM ATP in KR-buffer (final ATP concentration is 5 μM ATP, Km ATP in Btk IMAP assay). Following incubation for 2 h at room temperature the enzyme reaction is stopped by adding 40 μL/well IMAP Progressive Binding Solution (according to suppliers (Molecular Devices) protocol using 75% 1× buffer A and 25% 1× buffer B with 1:600 Progressive Binding Solution). After 60 min incubation at room temperature in the dark the FP signal is read. Fluorescence at 535 nm is measured using parallel and perpendicular filters to determine differences in rotation due to binding of the phosphorylated substrate peptide to the beads. Values are calculated as percentage of the difference in readout (ΔmPi) of the controls with and without ATP. EC50 values are determined by curve fitting of the experimental results using Activity Base.
For orientation: Polarisation of emitted light reports the rotation of a fluorescent probe.

T1 sequence (P12931 whole entry): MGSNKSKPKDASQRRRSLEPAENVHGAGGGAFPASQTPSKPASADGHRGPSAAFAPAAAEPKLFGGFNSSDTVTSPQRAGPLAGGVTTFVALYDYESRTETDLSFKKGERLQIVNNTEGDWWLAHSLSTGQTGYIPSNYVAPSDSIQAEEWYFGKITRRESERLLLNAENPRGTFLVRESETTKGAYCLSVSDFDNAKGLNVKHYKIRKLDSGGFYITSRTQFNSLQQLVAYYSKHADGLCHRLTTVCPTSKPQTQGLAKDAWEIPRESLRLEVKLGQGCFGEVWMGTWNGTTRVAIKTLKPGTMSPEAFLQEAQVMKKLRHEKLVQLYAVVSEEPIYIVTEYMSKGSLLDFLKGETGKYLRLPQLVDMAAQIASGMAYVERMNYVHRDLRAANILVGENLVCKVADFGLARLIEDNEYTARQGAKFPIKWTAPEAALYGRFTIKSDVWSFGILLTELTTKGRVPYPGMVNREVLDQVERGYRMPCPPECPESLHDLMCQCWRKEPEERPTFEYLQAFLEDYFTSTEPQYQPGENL
T2 sequence (Q06187 whole entry): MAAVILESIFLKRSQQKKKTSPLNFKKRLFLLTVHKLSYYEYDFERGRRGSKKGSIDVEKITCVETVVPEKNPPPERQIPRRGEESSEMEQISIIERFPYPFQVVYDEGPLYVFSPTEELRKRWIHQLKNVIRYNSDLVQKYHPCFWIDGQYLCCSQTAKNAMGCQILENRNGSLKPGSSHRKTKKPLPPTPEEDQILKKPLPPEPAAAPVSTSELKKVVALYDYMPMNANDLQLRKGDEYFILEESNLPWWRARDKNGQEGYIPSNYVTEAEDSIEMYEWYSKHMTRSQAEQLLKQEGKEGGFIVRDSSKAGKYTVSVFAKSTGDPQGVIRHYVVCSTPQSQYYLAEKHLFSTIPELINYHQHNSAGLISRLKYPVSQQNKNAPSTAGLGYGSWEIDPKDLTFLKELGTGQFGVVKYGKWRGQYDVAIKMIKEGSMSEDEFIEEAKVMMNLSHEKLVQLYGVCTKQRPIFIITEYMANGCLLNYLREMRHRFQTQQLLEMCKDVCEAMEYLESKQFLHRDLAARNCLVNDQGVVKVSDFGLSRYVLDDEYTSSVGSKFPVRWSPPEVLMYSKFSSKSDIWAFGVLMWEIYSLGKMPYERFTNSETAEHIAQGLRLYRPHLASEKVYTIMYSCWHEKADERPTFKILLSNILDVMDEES

`CCCc1ccnc(NC(=O)c2ccc(-c3nc([C@H](C)NC(=O)/C=C/CN(C)C)n4ccnc(C)c34)cc2)c1` [Example 28, (S,E)-4-(3-(1-(4-(dimethylamino)but-2-enamido)ethyl)-8-methylimidazo[1,5-a]pyrazin-1-yl)-N-(4-propylpyridin-2-yl)benzamide]: the EC50 (usually the concentration needed to bring the measured effect to its halfway point) on Src enzyme is at least 1 µM; on Btk enzyme (His-Btk) (bin bounds given in nM), under 10 nM.
On to `C=CC(=O)N[C@@H](C)c1nc(-c2ccc(C(=O)Nc3cc(CCC)ccn3)cc2)c2c(C)nccn12` [Example 23, (S)-4-(3-(1-acrylamidoethyl)-8-methylimidazo[1,5-a]pyrazin-1-yl)-N-(4-propylpyridin-2-yl)benzamide], for which the figures for the concentration for a half-maximal effect (EC50) on Src enzyme and at Btk enzyme (His-Btk) (bin bounds given in nM) were at least 1 µM and under 10 nM, respectively.
Regarding `Cc1nccn2c([C@@H]3CCCCN3C(=O)/C=C/CN3CCCC3)nc(-c3ccc(C(=O)Nc4cc(C(F)(F)F)ccn4)cc3)c12` [Example 21, (S,E)-4-(8-methyl-3-(1-(4-(pyrrolidin-1-yl)but-2-enoyl)piperidin-2-yl)imidazo[1,5-a]pyrazin-1-yl)-N-(4-(trifluoromethyl)pyridin-2-yl)benzamide], the half-maximal effective concentration (EC50) was at least 1 µM on Src enzyme and under 10 nM at Btk enzyme (His-Btk) (bin bounds given in nM).
For `CC#CC(=O)N1CCCC[C@H]1c1nc(-c2ccc(C(=O)Nc3cc(C(F)(F)F)ccn3)cc2)c2c(C)nccn12` [Example 29, (S)-4-(3-(1-but-2-ynoylpiperidin-2-yl)-8-methylimidazo[1,5-a]pyrazin-1-yl)-N-(4-(trifluoromethyl)pyridin-2-yl)benzamide], the 50% effective concentration (EC50) is at least 1 µM at Src enzyme and under 10 nM on Btk enzyme (His-Btk) (bin bounds given in nM).
On to `C=CC(=O)N1CCCC[C@H]1c1nc(-c2ccc(C(=O)Nc3cc(C(F)(F)F)ccn3)cc2)c2c(C)nccn12` [Example 27, (S)-4-(3-(1-acryloylpiperidin-2-yl)-8-methylimidazo[1,5-a]pyrazin-1-yl)-N-(4-(trifluoromethyl)pyridin-2-yl)benzamide], for which the values for the EC50 on Src enzyme and at Btk enzyme (His-Btk) (bin bounds given in nM) were at least 1 µM and under 10 nM, respectively.
With `CC#CC(=O)N[C@@H](C)c1nc(-c2ccc(C(=O)Nc3cc(C(F)(F)F)ccn3)cc2)c2c(C)nccn12` [Example 7, (S)-4-(3-(1-But-2-ynamidoethyl)-8-methylimidazo[1,5-a]pyrazin-1-yl)-N-(4-(trifluoromethyl)pyridin-2-yl)benzamide], the EC50 at Src enzyme is at least 1 µM; at Btk enzyme (His-Btk) (bin bounds given in nM), under 10 nM.
With `C=CC(=O)N1CCCC[C@H]1c1nc(-c2ccc(C(=O)Nc3cc(CCC)ccn3)cc2)c2c(C)nccn12` [Example 2, (S)-4-(3-(1-Acryloylpiperidin-2-yl)-8-methylimidazo[1,5-a]pyrazin-1-yl)-N-(4-propylpyridin-2-yl)benzamide], the EC50 at Src enzyme is at least 1 µM; on Btk enzyme (His-Btk) (bin bounds given in nM) it was under 10 nM.
As for `Cc1nccn2c([C@@H]3CCCN3C(=O)/C=C/CN3CCCC3)nc(-c3ccc(C(=O)Nc4ccccn4)cc3)c12` [Example 25, (S,E)-4-(8-methyl-3-(1-(4-(pyrrolidin-1-yl)but-2-enoyl)pyrrolidin-2-yl)imidazo[1,5-a]pyrazin-1-yl)-N-(pyridin-2-yl)benzamide], the half-maximal effective concentration (EC50) on Src enzyme is at least 1 µM; on Btk enzyme (His-Btk) (bin bounds given in nM), at least 100 nM; on Btk enzyme (His-Btk) (bounds given in μM), under 1000 nM.
With `C=CC(=O)N1CCC[C@H]1c1nc(-c2ccc(C(=O)Nc3cc(CCC)ccn3)cc2)c2c(C)nccn12` [Example 9, (S)-4-(3-(1-Acryloylpyrrolidin-2-yl)-8-methylimidazo[1,5-a]pyrazin-1-yl)-N-(4-propylpyridin-2-yl)benzamide], the EC50 at Src enzyme is at least 1 µM; at Btk enzyme (His-Btk) (bin bounds given in nM), under 10 nM.
Regarding `CC#CC(=O)N1CCCC[C@H]1c1nc(-c2ccc(C(=O)Nc3cc(CCC)ccn3)cc2)c2c(C)nccn12` [Example 22, (S)-4-(3-(1-but-2-ynoylpiperidin-2-yl)-8-methylimidazo[1,5-a]pyrazin-1-yl)-N-(4-propylpyridin-2-yl)benzamide], the concentration giving a half-maximal response (EC50) at Src enzyme was at least 1 µM; on Btk enzyme (His-Btk) (bin bounds given in nM), under 10 nM.
In the same order, the values of `CCCc1ccnc(NC(=O)c2ccc(-c3nc([C@H](C)NC(=O)/C=C/COC)n4ccnc(C)c34)cc2)c1` [Example 36, (S,E)-4-(3-(1-(4-methoxybut-2-enamido)ethyl)-8-methylimidazo[1,5-a]pyrazin-1-yl)-N-(4-propylpyridin-2-yl)benzamide] are at least 1 µM and under 10 nM.
On to `C=CC(=O)N1CCC[C@H]1c1nc(-c2ccc(C(=O)Nc3cc(C(F)(F)F)ccn3)cc2)c2c(C)nccn12` [Example 10, (S)-4-(3-(1-Acryloylpyrrolidin-2-yl)-8-methylimidazo[1,5-a]pyrazin-1-yl)-N-(4-(trifluoromethyl)pyridin-2-yl)benzamide], for which the concentration giving a half-maximal response (EC50) on Src enzyme was at least 1 µM; at Btk enzyme (His-Btk) (bin bounds given in nM) it was under 10 nM.
Turning to `C=CC(=O)N1CCC[C@H]1c1nc(-c2ccc(C(=O)Nc3cc(C#N)ccn3)cc2)c2c(C)nccn12` [Example 13, (S)-4-(3-(1-Acryloylpyrrolidin-2-yl)-8-methylimidazo[1,5-a]pyrazin-1-yl)-N-(4-cyanopyridin-2-yl)benzamide], the concentration giving a half-maximal response (EC50) on Src enzyme was at least 1 µM; at Btk enzyme (His-Btk) (bin bounds given in nM), under 10 nM.
Consider `CCCc1ccnc(NC(=O)c2ccc(-c3nc([C@@H]4CCCCN4C(=O)/C=C/CN4CCCC4)n4ccnc(C)c34)cc2)c1` [Example 35, (S,E)-4-(8-methyl-3-(1-(4-(pyrrolidin-1-yl)but-2-enoyl)piperidin-2-yl)imidazo[1,5-a]pyrazin-1-yl)-N-(4-propylpyridin-2-yl)benzamide], for which the EC50 was at least 1 µM on Src enzyme and under 10 nM on Btk enzyme (His-Btk) (bin bounds given in nM).
On the same counts, the results for `COC/C=C/C(=O)N[C@@H](C)c1nc(-c2ccc(C(=O)Nc3cc(C(F)(F)F)ccn3)cc2)c2c(C)nccn12` [Example 6, (S,E)-4-(3-(1-(4-Methoxybut-2-enamido)ethyl)-8-methylimidazo[1,5-a]pyrazin-1-yl)-N-(4-(trifluoromethyl)pyridin-2-yl)benzamide] are at least 1 µM and under 10 nM.
In the same order, the values of `C=CC(=O)N[C@@H](C)c1nc(-c2ccc(C(=O)Nc3cc(C(F)(F)F)ccn3)cc2)c2c(C)nccn12` [Example 8, (S)-4-(3-(1-Acrylamidoethyl)-8-methylimidazo[1,5-a]pyrazin-1-yl)-N-(4-(trifluoromethyl)pyridin-2-yl)benzamide] are at least 1 µM and under 10 nM.
Regarding `CCCc1ccnc(NC(=O)c2ccc(-c3nc([C@H](C)N(C)C(=O)/C=C/CN(C)C)n4ccnc(C)c34)cc2)c1` [Example 18, (S,E)-4-(3-(1-(4-(dimethylamino)-N-methylbut-2-enamido)ethyl)-8-methylimidazo[1,5-a]pyrazin-1-yl)-N-(4-propylpyridin-2-yl)benzamide], the values for the EC50 at Src enzyme and at Btk enzyme (His-Btk) (bin bounds given in nM) were at least 1 µM and under 10 nM, respectively.
